IC50 data for 15 compounds are collected here from patent US11945798B2, “Substituted aminopyridine compounds as EGFR inhibitors” (YUHAN CORPORATION, priority 2021, dated 2024).

One experiment addresses EGFR del19/T790M/C797S (Homo sapiens, UniProt P00533, C797S/DEL746-750/T790M). As to the kind of experiment: Biochemical EGFR kinase assay (Lance Ultra TR-FRET), del19/T790M/C797S. On the procedure: (§1) Biochemical EGFR kinase assays were conducted using Lance Ultra time-resolved fluorescence resonance energy transfer (TR-FRET) technology from Perkin-Elmer. Compounds of the invention were initially diluted to 20 mM in 100% DMSO for storage and made into kinase buffer solution to create a compound concentration ranging from 0.003 μM and 10 μM.
(§2) Each kinase reactions were incubated at room temperature for 1 hour and then stopped by the addition of 4 μL of stop solution (10 mM EDTA). The specific Europium-labeled-anti-phosphopeptide antibody (PerkinElmer, AD0069) diluted in LANCE detection buffer was then added to a final concentration of 2 nM. After 60 minutes incubation at room temperature the LANCE signal was measured on an EnVision Multilabel Reader (Perkin-Elmer). Excitation wavelength was set at 320 nm and emission monitored at 615 nm (donor) and 665 nm (acceptor). The IC50 values were determined using GraphPad prism software (GraphPad Software, Inc., San Diego, CA, USA).
(In general: TR-FRET usually uses a lanthanide donor and a delayed reading to cut background.)

The target of the next experiment is EGFR L858R/T790M/C797S (Homo sapiens, UniProt P00533, C797S/L858R/T790M). Description: Biochemical EGFR kinase assay (Lance Ultra TR-FRET), L858R/T790M/C797S. On the procedure: as §1, §2
Another experiment concerns the target EGFR del19/C797S (Homo sapiens, UniProt P00533, C797S/DEL746-750). Description: Biochemical EGFR kinase assay (Lance Ultra TR-FRET), del19/C797S. On the procedure: as §1, §2
The next experiment has as its target EGFR L858R/C797S (Homo sapiens, UniProt P00533, C797S/L858R). Description: Biochemical EGFR kinase assay (Lance Ultra TR-FRET), L858R/C797S. On the procedure: as §1, §2
The target in the next experiment is EGFR wildtype (WT) (Homo sapiens, UniProt P00533). As to the kind of experiment: Biochemical EGFR kinase assay (Lance Ultra TR-FRET), wildtype. On the procedure: as §1, §2
The mark [1] stands for this setting: Km ATP, read-out: IC50 del19/T790M/C797S (nM) Km ATP.
Setting [2] is: Km ATP, read-out: IC50 L858R/T790M/C797S (nM) Km ATP.
Where [3] appears, read: Km ATP, read-out: IC50 del19/C797S (nM) Km ATP.
The mark [4] stands for this setting: Km ATP, read-out: IC50 L858R/C797S (nM) Km ATP.
Setting [5] is: Km ATP, read-out: IC50 WT (nM) Km ATP.
[6] abbreviates: IC50 del19/T790M/C797S (nM) 100 μM ATP, 100 μM ATP.
Setting [7] is: IC50 L858R/T790M/C797S (nM) 100 μM ATP, 100 μM ATP.
[8] abbreviates: IC50 del19/C797S (nM) 100 μM ATP, 100 μM ATP.
Where [9] appears, read: IC50 L858R/C797S (nM) 100 μM ATP, 100 μM ATP.
The mark [10] stands for this setting: IC50 WT (nM) 100 μM ATP, 100 μM ATP.

Structures are written as SMILES. Like-named read-outs stand apart in the source and are kept apart here. Where only a bound is given, the exact number is not on record here.

Chain of EGFR L858R/T790M/C797S (P00533 25-1210 T790M/C797S/L858R): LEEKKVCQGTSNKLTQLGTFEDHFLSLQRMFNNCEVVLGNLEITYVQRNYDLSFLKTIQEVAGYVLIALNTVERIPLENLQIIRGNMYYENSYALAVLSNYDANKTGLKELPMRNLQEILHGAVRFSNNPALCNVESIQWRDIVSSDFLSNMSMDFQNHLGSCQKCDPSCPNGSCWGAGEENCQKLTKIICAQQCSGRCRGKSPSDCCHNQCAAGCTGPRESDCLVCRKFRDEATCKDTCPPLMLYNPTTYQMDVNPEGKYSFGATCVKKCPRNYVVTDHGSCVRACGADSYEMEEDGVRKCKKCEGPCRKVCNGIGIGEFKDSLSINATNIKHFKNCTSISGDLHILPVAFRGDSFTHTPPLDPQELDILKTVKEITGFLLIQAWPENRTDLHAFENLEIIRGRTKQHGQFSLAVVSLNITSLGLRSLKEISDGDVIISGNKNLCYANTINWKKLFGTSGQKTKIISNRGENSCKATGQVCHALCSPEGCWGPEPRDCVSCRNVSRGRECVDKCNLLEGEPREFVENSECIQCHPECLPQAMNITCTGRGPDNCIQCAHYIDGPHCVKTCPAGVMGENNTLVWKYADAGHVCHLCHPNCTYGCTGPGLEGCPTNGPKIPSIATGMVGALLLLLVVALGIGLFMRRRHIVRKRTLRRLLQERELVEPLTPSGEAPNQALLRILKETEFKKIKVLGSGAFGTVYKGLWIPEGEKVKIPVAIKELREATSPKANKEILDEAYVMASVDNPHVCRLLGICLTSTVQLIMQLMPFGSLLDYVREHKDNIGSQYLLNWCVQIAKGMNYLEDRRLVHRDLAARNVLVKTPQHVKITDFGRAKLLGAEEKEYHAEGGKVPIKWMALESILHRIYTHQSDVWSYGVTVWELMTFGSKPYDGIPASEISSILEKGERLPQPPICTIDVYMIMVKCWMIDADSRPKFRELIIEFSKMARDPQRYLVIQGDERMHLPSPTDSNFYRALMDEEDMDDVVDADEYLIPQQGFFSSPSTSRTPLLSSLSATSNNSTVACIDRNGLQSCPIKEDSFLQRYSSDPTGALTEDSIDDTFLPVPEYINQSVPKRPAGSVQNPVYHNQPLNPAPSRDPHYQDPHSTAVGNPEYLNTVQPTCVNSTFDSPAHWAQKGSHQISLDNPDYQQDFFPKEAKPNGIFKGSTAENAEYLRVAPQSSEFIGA
Chain of EGFR del19/T790M/C797S (P00533 with tags, fused parts or gaps DEL746-750/T790M/C797S): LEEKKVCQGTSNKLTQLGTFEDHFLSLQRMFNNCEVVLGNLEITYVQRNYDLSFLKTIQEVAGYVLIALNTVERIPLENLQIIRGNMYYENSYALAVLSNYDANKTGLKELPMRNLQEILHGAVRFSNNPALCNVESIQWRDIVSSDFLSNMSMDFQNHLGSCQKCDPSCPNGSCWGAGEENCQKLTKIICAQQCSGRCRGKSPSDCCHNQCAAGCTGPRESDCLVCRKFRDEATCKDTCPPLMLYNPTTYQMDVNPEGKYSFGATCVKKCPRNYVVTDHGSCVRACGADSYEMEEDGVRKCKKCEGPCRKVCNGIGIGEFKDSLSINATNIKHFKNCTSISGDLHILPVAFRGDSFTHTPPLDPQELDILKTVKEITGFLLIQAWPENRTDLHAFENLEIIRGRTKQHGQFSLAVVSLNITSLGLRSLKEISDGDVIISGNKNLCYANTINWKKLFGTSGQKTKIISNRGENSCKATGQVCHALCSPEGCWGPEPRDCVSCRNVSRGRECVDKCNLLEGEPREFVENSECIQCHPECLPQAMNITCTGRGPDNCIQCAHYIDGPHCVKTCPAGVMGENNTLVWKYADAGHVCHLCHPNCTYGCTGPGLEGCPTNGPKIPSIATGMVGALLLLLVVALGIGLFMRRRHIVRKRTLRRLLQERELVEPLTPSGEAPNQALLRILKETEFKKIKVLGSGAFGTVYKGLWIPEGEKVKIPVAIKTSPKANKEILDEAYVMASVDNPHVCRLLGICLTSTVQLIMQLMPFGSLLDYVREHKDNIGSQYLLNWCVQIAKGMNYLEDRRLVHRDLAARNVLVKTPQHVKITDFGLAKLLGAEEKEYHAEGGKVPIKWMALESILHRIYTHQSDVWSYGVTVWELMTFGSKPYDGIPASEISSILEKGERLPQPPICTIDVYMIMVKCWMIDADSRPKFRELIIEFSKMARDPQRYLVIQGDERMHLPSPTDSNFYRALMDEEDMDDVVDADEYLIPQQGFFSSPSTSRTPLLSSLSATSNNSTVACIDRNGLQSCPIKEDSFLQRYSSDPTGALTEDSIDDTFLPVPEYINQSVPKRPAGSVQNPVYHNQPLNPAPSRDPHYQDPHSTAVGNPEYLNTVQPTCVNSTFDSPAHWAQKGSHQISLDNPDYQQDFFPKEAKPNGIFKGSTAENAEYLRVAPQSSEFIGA
Chain of EGFR del19/C797S (P00533 with tags, fused parts or gaps DEL746-750/C797S): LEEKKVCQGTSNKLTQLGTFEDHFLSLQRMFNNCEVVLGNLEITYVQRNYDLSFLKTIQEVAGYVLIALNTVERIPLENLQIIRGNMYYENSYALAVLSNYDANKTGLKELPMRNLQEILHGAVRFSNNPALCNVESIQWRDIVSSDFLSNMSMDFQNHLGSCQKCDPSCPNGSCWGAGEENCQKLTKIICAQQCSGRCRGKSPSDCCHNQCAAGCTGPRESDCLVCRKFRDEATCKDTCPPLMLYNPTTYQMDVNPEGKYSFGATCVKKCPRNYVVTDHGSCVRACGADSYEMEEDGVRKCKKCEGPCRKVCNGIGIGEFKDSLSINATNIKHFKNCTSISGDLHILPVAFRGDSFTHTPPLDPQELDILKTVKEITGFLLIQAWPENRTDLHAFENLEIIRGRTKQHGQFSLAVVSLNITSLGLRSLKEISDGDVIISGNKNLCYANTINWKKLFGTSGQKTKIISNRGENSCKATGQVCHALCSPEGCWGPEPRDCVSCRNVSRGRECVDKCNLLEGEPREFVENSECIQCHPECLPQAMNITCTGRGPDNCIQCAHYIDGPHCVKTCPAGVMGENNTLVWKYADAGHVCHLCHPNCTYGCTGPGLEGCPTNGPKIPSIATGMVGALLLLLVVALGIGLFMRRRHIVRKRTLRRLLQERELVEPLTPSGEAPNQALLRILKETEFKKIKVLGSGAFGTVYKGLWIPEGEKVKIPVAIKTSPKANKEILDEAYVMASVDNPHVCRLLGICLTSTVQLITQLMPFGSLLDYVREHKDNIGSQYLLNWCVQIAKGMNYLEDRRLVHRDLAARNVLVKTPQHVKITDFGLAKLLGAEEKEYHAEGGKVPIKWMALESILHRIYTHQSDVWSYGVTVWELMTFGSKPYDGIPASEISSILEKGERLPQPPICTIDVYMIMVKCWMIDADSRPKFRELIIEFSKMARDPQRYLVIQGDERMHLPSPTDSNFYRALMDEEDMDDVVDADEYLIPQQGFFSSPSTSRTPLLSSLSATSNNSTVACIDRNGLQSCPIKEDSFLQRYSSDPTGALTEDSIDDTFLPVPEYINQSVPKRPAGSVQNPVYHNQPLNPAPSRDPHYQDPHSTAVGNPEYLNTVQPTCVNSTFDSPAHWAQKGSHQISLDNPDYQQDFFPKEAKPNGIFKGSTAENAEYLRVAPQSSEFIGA
Chain of EGFR L858R/C797S (P00533 25-1210 C797S/L858R): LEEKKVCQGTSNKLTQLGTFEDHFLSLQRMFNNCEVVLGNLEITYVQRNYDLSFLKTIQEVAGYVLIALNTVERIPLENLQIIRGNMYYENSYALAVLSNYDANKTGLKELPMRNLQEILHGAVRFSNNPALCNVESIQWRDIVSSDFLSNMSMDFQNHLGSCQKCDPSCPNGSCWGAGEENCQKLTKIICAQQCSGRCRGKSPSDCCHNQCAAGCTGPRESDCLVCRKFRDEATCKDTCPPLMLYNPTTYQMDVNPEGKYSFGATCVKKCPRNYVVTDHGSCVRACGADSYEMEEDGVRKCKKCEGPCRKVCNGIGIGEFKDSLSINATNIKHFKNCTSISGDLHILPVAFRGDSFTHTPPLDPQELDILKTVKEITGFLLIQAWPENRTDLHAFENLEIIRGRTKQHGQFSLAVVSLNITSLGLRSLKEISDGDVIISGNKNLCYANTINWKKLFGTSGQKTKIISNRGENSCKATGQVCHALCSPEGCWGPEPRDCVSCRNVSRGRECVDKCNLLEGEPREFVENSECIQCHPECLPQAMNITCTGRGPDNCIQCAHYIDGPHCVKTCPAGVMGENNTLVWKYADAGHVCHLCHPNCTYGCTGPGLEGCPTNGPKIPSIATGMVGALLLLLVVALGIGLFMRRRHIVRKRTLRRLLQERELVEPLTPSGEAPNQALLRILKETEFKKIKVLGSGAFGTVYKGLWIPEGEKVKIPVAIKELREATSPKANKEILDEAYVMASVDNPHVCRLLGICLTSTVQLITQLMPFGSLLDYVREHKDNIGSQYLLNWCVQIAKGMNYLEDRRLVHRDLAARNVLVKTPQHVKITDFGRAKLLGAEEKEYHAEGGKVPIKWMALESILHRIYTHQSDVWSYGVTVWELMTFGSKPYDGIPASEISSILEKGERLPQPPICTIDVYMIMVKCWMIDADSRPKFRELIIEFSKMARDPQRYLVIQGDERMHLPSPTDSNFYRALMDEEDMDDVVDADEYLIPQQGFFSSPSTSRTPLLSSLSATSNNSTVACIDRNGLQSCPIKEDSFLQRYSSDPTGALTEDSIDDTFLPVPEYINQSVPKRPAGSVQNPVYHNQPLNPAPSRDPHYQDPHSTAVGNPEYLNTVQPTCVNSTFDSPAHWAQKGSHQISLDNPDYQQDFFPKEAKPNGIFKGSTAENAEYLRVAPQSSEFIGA

In the case of `CC(C)Nc1cc(Nc2ccnc(-c3cnn(S(=O)(=O)C4CC4)c3)n2)ncc1C(=O)C1CC1` [Example 1, Cyclopropyl(6-((2-(1-(cyclopropylsulfonyl)-1H-pyrazol-4-yl)pyrimidin-4-yl)amino)-4-(isopropylamino)pyridin-3-yl)methanone], the IC50 was found to be 3.8 nM at EGFR del19/T790M/C797S (setting [1]); 1.1 nM at EGFR L858R/T790M/C797S (setting [2]); 4.5 nM at EGFR del19/C797S (setting [3]); 84.3 nM at EGFR L858R/C797S (setting [4]); 566 nM on EGFR wildtype (WT) (setting [5]).

As to `C[C@@H](CCO)Nc1cc(Nc2ccnc(-c3cnn(S(=O)(=O)C4CC4)c3)n2)ncc1C(=O)C1CC1` [Example 8, (S)-Cyclopropyl(6-((2-(1-(cyclopropylsulfonyl)-1H-pyrazol-4-yl)pyrimidin-4-yl)amino)-4-((4-hydroxybutan-2-yl)amino)pyridin-3-yl)methanone], the IC50 turned out to be 0.4 nM on EGFR del19/T790M/C797S (setting [1]); 1.4 nM at EGFR L858R/T790M/C797S (setting [2]); 61.6 nM on EGFR del19/C797S (setting [3]); 292 nM on EGFR L858R/C797S (setting [4]); 471 nM on EGFR wildtype (WT) (setting [5]).

With `O=C(c1cnc(Nc2ccnc(-c3cnn(S(=O)(=O)C4CC4)c3)n2)cc1NCCCO)C1CC1` [Example 9, Cyclopropyl(6-((2-(1-(cyclopropylsulfonyl)-1H-pyrazol-4-yl)pyrimidin-4-yl)amino)-4-((3-hydroxypropyl)amino)pyridin-3-yl)methanone], the IC50 on EGFR del19/T790M/C797S (setting [1]) was 0.7 nM; at EGFR L858R/T790M/C797S (setting [2]), 2.5 nM; at EGFR del19/C797S (setting [3]), 70.7 nM; at EGFR L858R/C797S (setting [4]), 479 nM; at EGFR wildtype (WT) (setting [5]), 528 nM.

Consider `O=C(c1cnc(Nc2ccnc(-c3cnn(S(=O)(=O)C4CC4)c3)n2)cc1NC1CCC(CO)C1)C1CC1` (stereo not shown) [Example 13, Cyclopropyl(6-((2-(1-(cyclopropylsulfonyl)-1H-pyrazol-4-yl)pyrimidin-4-yl)amino)-4-((3-(hydroxymethyl)cyclopentyl)amino)pyridin-3-yl)methanone], for which the IC50 at EGFR del19/T790M/C797S (setting [1]) came out at 0.2 nM; at EGFR L858R/T790M/C797S (setting [2]), 0.2 nM; on EGFR del19/C797S (setting [3]), 4.5 nM; on EGFR L858R/C797S (setting [4]), 61.7 nM; at EGFR wildtype (WT) (setting [5]) it was 28.2 nM.

Turning to `CN(C)Cc1ccc(CNc2cc(Nc3ccnc(-c4cnn(C(F)F)c4)n3)ncc2C(=O)C2CC2)cc1` [Example 16, Cyclopropyl(6-((2-(1-(difluoromethyl)-1H-pyrazol-4-yl)pyrimidin-4-yl)amino)-4-((4-((dimethylamino)methyl)benzyl)amino)pyridin-3-yl)methanone], the IC50 on EGFR del19/T790M/C797S (setting [1]) stood at 2.3 nM; on EGFR L858R/T790M/C797S (setting [2]) it was 0.4 nM; at EGFR del19/C797S (setting [3]), 13.2 nM; at EGFR L858R/C797S (setting [4]) it was 30.8 nM; on EGFR wildtype (WT) (setting [5]), 176 nM.

Regarding `CN(C)Cc1ccc(CNc2cc(Nc3ccnc(-c4cnn(S(=O)(=O)C5CC5)c4)n3)ncc2C(=O)C2CC2)s1` [Example 20, Cyclopropyl(6-((2-(1-(cyclopropylsulfonyl)-1H-pyrazol-4-yl)pyrimidin-4-yl)amino)-4-(((5-((dimethylamino)methyl)thiophen-2-yl)methyl)amino)pyridin-3-yl)methanone], the IC50 on EGFR del19/T790M/C797S (setting [1]) is 2.2 nM; at EGFR L858R/T790M/C797S (setting [2]) it was 3.9 nM; on EGFR del19/C797S (setting [3]), 415 nM; at EGFR L858R/C797S (setting [4]), 59.2 nM; on EGFR wildtype (WT) (setting [5]), 239 nM.

Turning to `CN(C)C1CCN(CCNc2cc(Nc3ccnc(-c4cnn(S(=O)(=O)C5CC5)c4)n3)ncc2C(=O)C2CC2)CC1` [Example 21, Cyclopropyl(6-((2-(1-(cyclopropylsulfonyl)-1H-pyrazol-4-yl)pyrimidin-4-yl)amino)-4-((2-(4-(dimethylamino)piperidin-1-yl)ethyl)amino)pyridin-3-yl)methanone], the IC50 on EGFR del19/T790M/C797S (setting [1]) is 0.4 nM; on EGFR L858R/T790M/C797S (setting [2]) it was 1.1 nM; on EGFR del19/C797S (setting [3]) it was 72.3 nM; at EGFR L858R/C797S (setting [4]), 16.4 nM; at EGFR wildtype (WT) (setting [5]), 63.5 nM.

With `O=C(c1cnc(Nc2ccnc(-c3cnn(S(=O)(=O)C4CC4)c3)n2)cc1N[C@H]1CCC[C@H](O)C1)C1CC1` [Example 22, Cyclopropyl(6-((2-(1-(cyclopropylsulfonyl)-1H-pyrazol-4-yl)pyrimidin-4-yl)amino)-4-(((1S,3S)-3-hydroxycyclohexyl)amino)pyridin-3-yl)methanone], the IC50 is 0.9 nM on EGFR del19/T790M/C797S (setting [6]); 1.1 nM against EGFR L858R/T790M/C797S (setting [7]); 14 nM against EGFR del19/C797S (setting [8]); 33.2 nM on EGFR L858R/C797S (setting [9]); over 10000 nM against EGFR wildtype (WT) (setting [10]).

Take `O=C(c1cnc(Nc2ccnc(-c3cnn(S(=O)(=O)C4CC4)c3)n2)cc1N[C@H]1CC[C@H](O)C1)C1CC1` [Example 24, Cyclopropyl(6-((2-(1-(cyclopropylsulfonyl)-1H-pyrazol-4-yl)pyrimidin-4-yl)amino)-4-(((1S,3S)-3-hydroxycyclopentyl)amino)pyridin-3-yl)methanone]: the IC50 against EGFR L858R/T790M/C797S (setting [7]) is 4.4 nM; against EGFR del19/C797S (setting [8]) it was 70.9 nM; against EGFR L858R/C797S (setting [9]) it was 79.1 nM; against EGFR wildtype (WT) (setting [10]), over 10000 nM.

`CC(C)Nc1cc(Nc2ccnc(-c3cnn(S(=O)(=O)C4CC4)c3)n2)ncc1F` [Example 41, N^2-(2-(1-(Cyclopropylsulfonyl)-1H-pyrazol-4-yl)pyrimidin-4-yl)-5-fluoro-N^4-isopropylpyridine-2,4-diamine]: the IC50 at EGFR L858R/T790M/C797S (setting [2]) was found to be 5.6 nM; on EGFR del19/C797S (setting [3]), 47.7 nM; on EGFR L858R/C797S (setting [4]), 444 nM; at EGFR wildtype (WT) (setting [5]) it was 145 nM.

In the case of `CC(C)(O)[C@H]1CC[C@@H](Nc2cc(Nc3ccnc(-c4cnn(S(=O)(=O)C5CC5)c4)n3)ncc2C(=O)C(F)F)CC1` [Example 50, 1-(6-((2-(1-(Cyclopropylsulfonyl)-1H-pyrazol-4-yl)pyrimidin-4-yl)amino)-4-(((1s,4s)-4-(2-hydroxypropan-2-yl)cyclohexyl)amino)pyridin-3-yl)-2,2-difluoroethan-1-one], the IC50 against EGFR L858R/T790M/C797S (setting [7]) was 6.9 nM; on EGFR L858R/T790M/C797S (setting [2]), 1.1 nM; against EGFR del19/C797S (setting [8]) it was 8.8 nM; at EGFR del19/C797S (setting [3]), 17.2 nM; against EGFR L858R/C797S (setting [9]), 157 nM; on EGFR L858R/C797S (setting [4]), 42.8 nM. Moreover, the values for the IC50 against EGFR wildtype (WT) (setting [10]) and at EGFR wildtype (WT) (setting [5]) were over 10000 nM and 1170 nM, respectively.

Turning to `O=C(c1cnc(Nc2ccnc(-c3cnn(S(=O)(=O)C4CC4)c3)n2)cc1N[C@H]1CC[C@@H](NCCF)CC1)C(F)F` [Example 51, 1-(6-((2-(1-(Cyclopropylsulfonyl)-1H-pyrazol-4-yl)pyrimidin-4-yl)amino)-4-(((1s,4s)-4-((2-fluoroethyl)amino)cyclohexyl)amino)pyridin-3-yl)-2,2-difluoroethan-1-one], the IC50 came to 4.5 nM against EGFR L858R/T790M/C797S (setting [7]); 1.1 nM at EGFR L858R/T790M/C797S (setting [2]); 18.9 nM on EGFR del19/C797S (setting [8]); 45.4 nM on EGFR del19/C797S (setting [3]); 407 nM against EGFR L858R/C797S (setting [9]); 47.1 nM at EGFR L858R/C797S (setting [4]). For the same compound, the IC50 on EGFR wildtype (WT) (setting [10]) is over 10000 nM; on EGFR wildtype (WT) (setting [5]), 1240 nM.

As for `CN(C)C[C@H]1CC[C@H](CNc2cc(Nc3ccnc(-c4cnn(C5CC5)c4)n3)ncc2C(=O)C2CC2)CC1` [Example 60, Cyclopropyl(6-((2-(1-cyclopropyl-1H-pyrazol-4-yl)pyrimidin-4-yl)amino)-4-((((1r,4r)-4-((dimethylamino)methyl)cyclohexyl)methyl)amino)pyridin-3-yl)methanone], the IC50 on EGFR del19/T790M/C797S (setting [1]) is 5.4 nM; at EGFR L858R/T790M/C797S (setting [2]), 3.5 nM; at EGFR L858R/C797S (setting [4]), 115 nM; on EGFR wildtype (WT) (setting [5]), 430 nM.

As to `CC(C)C(=O)NC[C@H]1CC[C@H](CNc2cc(Nc3ccnc(-c4cnn(S(=O)(=O)C5CC5)c4)n3)ncc2C(=O)C2CC2)CC1` [Example 72, N-(((1r,4r)-4-(((5-(Cyclopropanecarbonyl)-2-((2-(1-(cyclopropylsulfonyl)-1H-pyrazol-4-yl)pyrimidin-4-yl)amino)pyridin-4-yl)amino)methyl)cyclohexyl)methyl)isobutyramide], the IC50 on EGFR del19/T790M/C797S (setting [1]) turned out to be 1 nM; at EGFR del19/C797S (setting [3]), 7.2 nM; on EGFR L858R/C797S (setting [4]), 45.8 nM; at EGFR wildtype (WT) (setting [5]) it was 2040 nM.

In the case of `CC(C)Nc1cc(Nc2ccnc(-c3cnn(S(=O)(=O)C4CC4)c3)n2)ncc1C1=CCCCO1` [Example 84, N^2-(2-(1-(Cyclopropylsulfonyl)-1H-pyrazol-4-yl)pyrimidin-4-yl)-5-(3,4-dihydro-2H-pyran-6-yl)-N^4-isopropylpyridine-2,4-diamine], the IC50 is 4.5 nM against EGFR del19/T790M/C797S (setting [6]), 107 nM on EGFR del19/C797S (setting [8]), 523 nM at EGFR L858R/C797S (setting [9]) and over 10000 nM against EGFR wildtype (WT) (setting [10]).
